Literature values as cited in patent US7393954B2 (Reliable Biopharmaceutical Corporation, priority 2002, dated 2008).

Experiments:
[1] = test system: chronic lymphocytic leukemia; settings: result in words
hairy cell leukemia = settings: result in words

OC[C@H]1O[C@@H](n2cnc3c2N=CNC[C@H]3O)C[C@@H]1O [Pentostatin]
efficacy against chronic lymphocytic leukemia [1]: effective
efficacy in treatment of interferon-refractory hairy cell leukemia (hairy cell leukemia; interferon-refractory, approved agent): highly effective
efficacy against hairy cell leukemia (hairy cell leukemia): effective
